{"source": "patent US20220213210A1", "about": "“COMBINATION THERAPY OF MULTIPLE SCLEROSIS COMPRISING A CD20 LIGAND” (MABION SA, priority 2017, published 2022)", "system": "MOG-induced experimental allergic encephalomyelitis (EAE) murine model", "experiment": "MOG-induced experimental allergic encephalomyelitis (EAE) murine model, clinical score 0-15", "assay_type": "in vivo, Mouse/C57BL/6J", "settings": "dimethyl fumarate in therapeutic dose, 49 mg/kg PO bi-daily, Days 0-35 (Group 11)", "excerpt": "FIG. 1: Combination of MabionCD20DP and teriflunomide. MabionCD20DP and teriflunomide have been administered to an experimental allergic encephalomyelitis (EAE) mouse model. The MOG (myelin oligodendrocyte glycoprotein)-induced EAE murine model consists of a sensitization period, induced by the single SC injection of MOG emulsified in CFA (complete Freund's adjuvant) on Day 0, followed by IP supplemental immunostimulation with PT carried out once at the time of EAE induction and once again 48 hours later.\nFIG. 2: Combination of MabionCD20DP and dimethyl fumarate. MabionCD20DP and dimethyl fumarate have been administered to an experimental allergic encephalomyelitis (EAE) mouse model. […]\nThroughout the 36-day study, general clinical examinations were performed and recorded if any unexpected abnormalities are observed.\nBody weight loss can be the first sign of disease initiation, while a sudden marked weight gain tends to accompany remission of EAE symptoms. Therefore, determination of individual body weights of animals was made shortly before EAE induction on Study Day 0 and was monitored on a daily basis throughout the 35-day observation period. […]", "note": "Where a name gives a salt, the structure may show the parent alone.", "data": [{"smiles": "COC(=O)/C=C/C(=O)OC", "note": "[dimethyl fumarate]", "values": [{"measurement": "disease parameters (EAE), FIG. 2", "result": "reduction of the disease parameters"}]}]}
